Assay: xn = mol fraction of the nth substance listed
Details: 101 kPa, Liquid, Vibrating tube method

NC1CCCCC1 [cyclohexylamine] + CCCCO
mass density [kg/m3]
Details	288.15 K	293.15 K	298.15 K	303.15 K	308.15 K	313.15 K	318.15 K	323.15 K
x2 = 0	871.29	866.747	862.207	857.671	853.138	848.607	844.073	839.547
x2 = 0.0499	870.402	865.907	861.409	856.914	852.415	847.912	843.406	838.847
x2 = 0.1019	869.284	864.828	860.372	855.914	851.45	846.979	842.499	838.018
x2 = 0.1499	868.221	863.8	859.375	854.945	850.509	846.063	841.605	837.144
x2 = 0.1997	867.037	862.648	858.251	853.85	849.438	845.013	840.578	836.136
x2 = 0.2995	864.139	859.8	855.453	851.095	846.722	842.337	837.935	833.516
x2 = 0.4	860.506	856.206	851.899	847.581	843.244	838.892	834.521	830.136
x2 = 0.4994	855.958	851.708	847.444	843.167	838.874	834.561	830.229	825.872
x2 = 0.6006	850.147	845.964	841.767	837.554	833.322	829.067	824.783	820.478
x2 = 0.6977	843.134	839.036	834.924	830.791	826.637	822.458	818.247	814.01
x2 = 0.7497	838.964	834.921	830.861	826.78	822.671	818.541	814.376	810.181
x2 = 0.7984	834.505	830.511	826.498	822.464	818.404	814.315	810.191	806.034
x2 = 0.85	829.604	825.664	821.703	817.72	813.708	809.66	805.587	801.472
x2 = 0.8993	824.498	820.606	816.697	812.762	808.799	804.804	800.769	796.696
x2 = 0.9508	819.064	815.223	811.359	807.471	803.552	799.601	795.606	791.569

NC1CCCCC1 [cyclohexylamine] + CCCCCCC
mass density [kg/m3]
Details	288.15 K	293.15 K	298.15 K	303.15 K	308.15 K	313.15 K	318.15 K	323.15 K
x1 = 0.0501	694.788	690.573	686.334	682.072	677.784	673.467	669.12	664.739
x1 = 0.1002	701.818	697.601	693.36	689.097	684.805	680.49	676.146	671.776
x1 = 0.1501	709.079	704.855	700.609	696.341	692.046	687.73	683.386	679.015
x1 = 0.2305	721.227	716.988	712.729	708.452	704.15	699.827	695.479	691.106
x1 = 0.3004	732.296	728.038	723.765	719.477	715.17	710.839	706.489	702.117
x1 = 0.401	749.067	744.783	740.484	736.173	731.847	727.504	723.139	718.756
x1 = 0.4497	757.546	753.244	748.933	744.614	740.28	735.927	731.554	727.16
x1 = 0.5597	777.524	773.195	768.854	764.509	760.149	755.773	751.384	746.981
x1 = 0.6001	785.155	780.814	776.463	772.102	767.732	763.352	758.953	754.544
x1 = 0.6498	794.839	790.479	786.113	781.744	777.362	772.968	768.563	764.139
x1 = 0.6994	804.717	800.344	795.962	791.575	787.181	782.776	778.36	773.935
x1 = 0.7999	825.611	821.199	816.783	812.36	807.934	803.499	799.055	794.605
x1 = 0.8992	847.523	843.061	838.598	834.132	829.662	825.189	820.71	816.229
x1 = 1	871.29	866.747	862.207	857.671	853.138	848.607	844.073	839.547

CCCCO [butan-1-ol] + CCCCCCC
mass density [kg/m3]
Details	288.15 K	293.15 K	298.15 K	303.15 K	308.15 K	313.15 K	318.15 K	323.15 K
x1 = 0.0691	692.997	688.732	684.439	680.112	675.754	671.356	666.921	662.457
x1 = 0.0999	695.43	691.164	686.867	682.541	678.179	673.778	669.334	664.851
x1 = 0.1495	699.575	695.309	691.013	686.688	682.323	677.919	673.469	668.978
x1 = 0.1701	701.352	697.089	692.795	688.469	684.105	679.699	675.246	670.749
x1 = 0.2	703.971	699.708	695.42	691.091	686.729	682.324	677.872	673.376
x1 = 0.2497	708.55	704.296	700.016	695.692	691.331	686.93	682.482	677.987
x1 = 0.2507	708.652	704.392	700.109	695.793	691.434	687.035	682.589	678.099
x1 = 0.2999	713.405	709.158	704.88	700.571	696.222	691.828	687.391	682.909
x1 = 0.3501	718.522	714.283	710.016	705.715	701.373	696.989	692.557	688.076
x1 = 0.3998	723.818	719.595	715.341	711.055	706.726	702.355	697.935	693.471
x1 = 0.4497	729.369	725.163	720.925	716.653	712.34	707.984	703.577	699.118
x1 = 0.4999	735.288	731.11	726.892	722.64	718.343	714.006	709.618	705.176
x1 = 0.5516	741.637	737.484	733.291	729.062	724.793	720.478	716.114	711.695
x1 = 0.6497	754.667	750.57	746.442	742.276	738.07	733.819	729.516	725.167
x1 = 0.6999	761.833	757.773	753.681	749.559	745.39	741.178	736.918	732.609
x1 = 0.7502	769.372	765.348	761.298	757.214	753.09	748.919	744.697	740.419
x1 = 0.7999	777.249	773.267	769.263	765.22	761.14	757.016	752.839	748.617
x1 = 0.8498	785.51	781.573	777.613	773.62	769.591	765.519	761.397	757.222
x1 = 0.9006	794.437	790.548	786.635	782.692	778.716	774.698	770.631	766.522
x1 = 1	813.373	809.573	805.762	801.923	798.053	794.147	790.231	786.238
